This is an account of results in publication PMC11160895 (Research Square, 2024).

The target of series [1] is T1, HLA-A3 (Homo sapiens, UniProt P04439). Briefly: 19F NMR of 5F-Trp6 peptides bound to HLA-A3. Details: the extracellular domain of the MHC heavy chain, β2-microglobulin, TCR α and β chains, and the s3–4 scTv were overexpressed in E coli; made in house.
The next series relates to T cells expressing TCR4. In words: T cell degranulation CD107a, TCR4-transduced T cells co-cultured with HLA-A3+ antigen presenting cells. The settings on record: peptide concentrations as high as 10 μM.
Another series relates to TCR4. Briefly: SPR binding of TCR4 to peptide/HLA-A3 complexes, 4 °C. As to conditions: HBS-EP pH 7.4, gp100 presented by HLA-A2 as irrelevant negative control. Background: Surface plasmon resonance follows binding to a sensor surface in real time, without labels.
The target in series [2] is T1, HLA-A3. The settings on record: fluorescence anisotropy, position 5 5-carboxyfluorescein-lysine peptide, 100 nM complex + 100 μM unlabeled peptide, 20 mM NaH2PO4, 75 mM NaCl, pH 7.4; cited from earlier work. On the technique in general: Polarisation of emitted light reports the rotation of a fluorescent probe.
Series [3] has as its target T1, HLA-A3. In words: Peptide dissociation from HLA-A3 by fluorescence anisotropy. As to conditions: 100 nM labeled complex + 100 μM unlabeled peptide, pH 7.4.
For the next series, the system named is neoantigen-specific TCRs. As to conditions: cited from earlier work. An excerpt: The slight change in the position of the side chain in the complex with TCR3 distorts the geometry of this interaction, although the side chain is still embedded in a complex electrostatic environment with structur ...

T1 sequence (P04439 25-308 limits assumed): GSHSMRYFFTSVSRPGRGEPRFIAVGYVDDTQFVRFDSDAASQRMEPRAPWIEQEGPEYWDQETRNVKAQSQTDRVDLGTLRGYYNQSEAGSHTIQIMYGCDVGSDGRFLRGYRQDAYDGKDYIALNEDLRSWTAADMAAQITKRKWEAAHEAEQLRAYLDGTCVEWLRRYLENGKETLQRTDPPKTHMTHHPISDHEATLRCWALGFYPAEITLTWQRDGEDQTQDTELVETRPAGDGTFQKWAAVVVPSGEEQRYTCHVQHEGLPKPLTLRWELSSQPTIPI
T1 sequence (P61769 21-119 partner): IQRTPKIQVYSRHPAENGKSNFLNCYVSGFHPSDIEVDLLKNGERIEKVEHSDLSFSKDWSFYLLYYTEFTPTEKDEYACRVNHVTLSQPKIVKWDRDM

In the case of “AHHGGWTTK [WT peptide, wild-type PIK3CA counterpart peptide presented by HLA-A3]”, at HLA-A3 [1] (5F-Trp6 peptide/HLA-A3 complex, 5 °C), the “number of 19F peaks of the complex by line shape fitting” value is on record as “at least eight”. On HLA-A3 [1] (5F-Trp6 peptide/HLA-A3 complex, 5 °C, EXSY consistent), the “conformational exchange (CEST)” value is listed as “all the peaks were in exchange except for the peak at −125.12 ppm”. Moreover, on HLA-A3 [1] (approximately 11 months at 4 °C, 5F-Trp6 peptide/HLA-A3), the “stability of complex on storage (19F NMR)” value is listed as “significant increase in the resonance at −125.12 ppm”. The “T cell stimulation (CD107a)” value with T cells expressing TCR4 is given as “no stimulation was evident”. The “binding to TCR4 (detection)” value in the series with TCR4 was “No binding was detectable”. In addition, the “stability of peptide/HLA-A3 complex at 37 °C” value on HLA-A3 [2] is “markedly less stable”. Further, the “stability of peptide/HLA-A3 complex at 25 °C” value on HLA-A3 [3] is on record as “markedly less stable”. The “recognition by multiple neoantigen-specific TCRs” value with neoantigen-specific TCRs is reported as “unable to recognize the WT peptide/HLA-A3 complex”.
